From patent US20020137929A1, “1 - (3-heterocyclylphenyl) isothiourea, -isourea, -guanidine and -amidine herbicidal agents” (Intellectual Property Department, BASF Aktiengesellschaft, priority 1998, published 2002)

Columns and labels:
AMBEL (Ragweed, Common) [1] = assay: Postemergence herbicidal evaluation; assay type: in vivo, Ambrosia artemisifolia; details: postemergence
Summary of the method: (§1)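 Two-week-old seedlings sprayed with compound in 50/50 acetone/water plus 0.5% TWEEN 20, at about 0.0156 to 0.500 kg/ha, nozzle at 40 psi. Kept in greenhouse; rated visually 4-5 weeks after treatment on a 0-9 scale versus control, repeat tests averaged.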

[2] = system: SAGPY (Arrowhead (Pygmaea)); assay: Preemergence weed control under flooded paddy conditions; assay type: in vivo, Sagittaria pygmaea; details: rated 3-4 weeks after treatment
Summary of the method: (§2)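 Using flooded silt loam (water 1.5 to 3 cm deep), seeds sown in the top 0.5 cm were exposed preemergence to compound pipetted into the flood at about 0.0313 to 0.500 kg/ha. Effects were scored 0-9 by eye three to four weeks later.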

[3] = system: IPOHE (Morningglory, Ivyleaf); assay: Postemergence herbicidal evaluation; assay type: in vivo, Ipomoea hederacea; details: postemergence
Summary of the method: as §1

ABUTH (Velvetleaf) = assay: Preemergence herbicidal evaluation; assay type: in vivo, Abutilon theophrasti; details: rated 4-5 weeks after treatment
Summary of the method: (§3)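 Preemergence soil application of compound, sprayed in aqueous acetone at rates equivalent to about 0.0156 to 0.500 kg per hectare onto freshly sown cups. Plant response was judged by eye on a 0-9 scale four to five weeks later.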

ORYSAT (Rice, Tebonnet) = assay: Preemergence herbicidal evaluation; assay type: in vivo, Oryza sativa, (L.) Tebonnet; details: rated 4-5 weeks after treatment
Summary of the method: as §3

[4] = system: CHEAL (Lambsquarters, Common); assay: Preemergence herbicidal evaluation; assay type: in vivo, Chenopodium album; details: rated 4-5 weeks after treatment
Summary of the method: as §3

CASOB (Sicklepod) [5] = assay: Preemergence herbicidal evaluation; assay type: in vivo, Cassia obtusifolia; details: rated 4-5 weeks after treatment
Summary of the method: as §3

CASOB (Sicklepod) [6] = assay: Postemergence herbicidal evaluation; assay type: in vivo, Cassia obtusifolia; details: postemergence
Summary of the method: as §1

[7] = system: GLXMAW (Soybean, Williams); assay: Preemergence herbicidal evaluation; assay type: in vivo, Glycine max, (L.) Merr. cv Williams; details: rated 4-5 weeks after treatment
Summary of the method: as §3

[8] = system: IPOHE (Morningglory, Ivyleaf); assay: Preemergence herbicidal evaluation; assay type: in vivo, Ipomoea hederacea; details: rated 4-5 weeks after treatment
Summary of the method: as §3

[9] = system: CHEAL (Lambsquarters, Common); assay: Postemergence herbicidal evaluation; assay type: in vivo, Chenopodium album; details: postemergence
Summary of the method: as §1

AMBEL (Ragweed, Common) [10] = assay: Preemergence herbicidal evaluation; assay type: in vivo, Ambrosia artemisifolia; details: rated 4-5 weeks after treatment
Summary of the method: as §3

[11] = system: GLXMAW (Soybean, Williams); assay: Postemergence herbicidal evaluation; assay type: in vivo, Glycine max, (L.) Merr. cv Williams; details: postemergence
Summary of the method: as §1

MOOVA (Monochoria) = assay: Preemergence weed control under flooded paddy conditions; assay type: in vivo, Monochoria vaginalis; details: rated 3-4 weeks after treatment
Summary of the method: as §2

[12] = system: TRZAWR (Wheat, Winter, cv Riband); assay: Postemergence herbicidal evaluation; assay type: in vivo, Triticum aestivum; details: postemergence
Summary of the method: as §1

ECHCG (Barnyardgrass) = assay: Postemergence herbicidal evaluation; assay type: in vivo, Echinochloa crus-galli; details: postemergence
Summary of the method: as §1

SMILES: CC(C)COC(=O)CN1C(=O)CSC1=Nc1cc(-n2c(=O)cc(C(F)(F)F)n(C)c2=O)c(F)cc1Cl [Compound 121, Isobutyl 2-{{2-chloro-5-[3,6-dihydro-3-methyl-2,6-dioxo-4-(trifluoromethyl)-1(2H)-pyrimidinyl]-4-fluorophenyl}imino}-4-oxo-3-thiazolidineacetate]
- Herbicidal rating AMBEL (AMBEL (Ragweed, Common) [1]; rate 0.0156 kg/ha): 9.0
- Herbicidal rating AMBEL (AMBEL (Ragweed, Common) [1]; rate 0.0313 kg/ha): 9.0
- Herbicidal rating AMBEL (AMBEL (Ragweed, Common) [1]; rate 0.0625 kg/ha): 9.0
- herbicidal effect rating, SAGPY ([2]; 0.0313 kg/ha): 0.0
- herbicidal effect rating, SAGPY ([2]; 0.0625 kg/ha): 4.0
- herbicidal effect rating, SAGPY ([2]; 0.1250 kg/ha): 4.0
- herbicidal effect rating, SAGPY ([2]; 0.2500 kg/ha): 6.0
- Herbicidal rating IPOHE ([3]; rate 0.0156 kg/ha): 9.0
- Herbicidal rating IPOHE ([3]; rate 0.0313 kg/ha): 9.0
- Herbicidal rating IPOHE ([3]; rate 0.0625 kg/ha): 9.0
- Preemergence herbicidal rating ABUTH (ABUTH (Velvetleaf); rate 0.0156 kg/ha): 9.0
- Preemergence herbicidal rating ABUTH (ABUTH (Velvetleaf); rate 0.0313 kg/ha): 9.0
- Preemergence herbicidal rating ABUTH (ABUTH (Velvetleaf); rate 0.0625 kg/ha): 9.0
- Preemergence herbicidal rating ABUTH (ABUTH (Velvetleaf); rate 0.1250 kg/ha): 9.0
- Preemergence herbicidal rating ABUTH (ABUTH (Velvetleaf); rate 0.2500 kg/ha): 9.0
- Preemergence herbicidal rating ORYSAT (ORYSAT (Rice, Tebonnet); rate 0.0156 kg/ha): 0.0
- Preemergence herbicidal rating ORYSAT (ORYSAT (Rice, Tebonnet); rate 0.0313 kg/ha): 0.0
- Preemergence herbicidal rating ORYSAT (ORYSAT (Rice, Tebonnet); rate 0.0625 kg/ha): 0.0
- Preemergence herbicidal rating ORYSAT (ORYSAT (Rice, Tebonnet); rate 0.1250 kg/ha): 4.0
- Preemergence herbicidal rating ORYSAT (ORYSAT (Rice, Tebonnet); rate 0.2500 kg/ha): 5.0
- Preemergence herbicidal rating CHEAL ([4]; rate 0.0156 kg/ha): 9.0
- Preemergence herbicidal rating CHEAL ([4]; rate 0.0313 kg/ha): 9.0
- Preemergence herbicidal rating CHEAL ([4]; rate 0.0625 kg/ha): 9.0
- Preemergence herbicidal rating CHEAL ([4]; rate 0.1250 kg/ha): 9.0
- Preemergence herbicidal rating CHEAL ([4]; rate 0.2500 kg/ha): 9.0
- Preemergence herbicidal rating CASOB (CASOB (Sicklepod) [5]; rate 0.0156 kg/ha): 0.0
- Preemergence herbicidal rating CASOB (CASOB (Sicklepod) [5]; rate 0.0313 kg/ha): 0.0
- Preemergence herbicidal rating CASOB (CASOB (Sicklepod) [5]; rate 0.0625 kg/ha): 0.0
- Preemergence herbicidal rating CASOB (CASOB (Sicklepod) [5]; rate 0.1250 kg/ha): 9.0
- Preemergence herbicidal rating CASOB (CASOB (Sicklepod) [5]; rate 0.2500 kg/ha): 9.0
- Herbicidal rating CASOB (CASOB (Sicklepod) [6]; rate 0.0156 kg/ha): 0.0
- Herbicidal rating CASOB (CASOB (Sicklepod) [6]; rate 0.0313 kg/ha): 1.0
- Herbicidal rating CASOB (CASOB (Sicklepod) [6]; rate 0.0625 kg/ha): 7.0
- Preemergence herbicidal rating GLXMAW ([7]; rate 0.0156 kg/ha): 0.0
- Preemergence herbicidal rating GLXMAW ([7]; rate 0.0313 kg/ha): 0.0
- Preemergence herbicidal rating GLXMAW ([7]; rate 0.0625 kg/ha): 0.0
- Preemergence herbicidal rating GLXMAW ([7]; rate 0.1250 kg/ha): 1.0
- Preemergence herbicidal rating GLXMAW ([7]; rate 0.2500 kg/ha): 2.0
- Preemergence herbicidal rating IPOHE ([8]; rate 0.0156 kg/ha): 0.0
- Preemergence herbicidal rating IPOHE ([8]; rate 0.0313 kg/ha): 0.0
- Preemergence herbicidal rating IPOHE ([8]; rate 0.0625 kg/ha): 3.0
- Preemergence herbicidal rating IPOHE ([8]; rate 0.1250 kg/ha): 4.0
- Preemergence herbicidal rating IPOHE ([8]; rate 0.2500 kg/ha): 9.0
- Herbicidal rating CHEAL ([9]; rate 0.0156 kg/ha): 4.0
- Herbicidal rating CHEAL ([9]; rate 0.0313 kg/ha): 7.0
- Herbicidal rating CHEAL ([9]; rate 0.0625 kg/ha): 9.0
- Preemergence herbicidal rating AMBEL (AMBEL (Ragweed, Common) [10]; rate 0.0156 kg/ha): 0.0
- Preemergence herbicidal rating AMBEL (AMBEL (Ragweed, Common) [10]; rate 0.0313 kg/ha): 2.0
- Preemergence herbicidal rating AMBEL (AMBEL (Ragweed, Common) [10]; rate 0.0625 kg/ha): 3.0
- Preemergence herbicidal rating AMBEL (AMBEL (Ragweed, Common) [10]; rate 0.1250 kg/ha): 4.0
- Preemergence herbicidal rating AMBEL (AMBEL (Ragweed, Common) [10]; rate 0.2500 kg/ha): 8.0
- Herbicidal rating GLXMAW ([11]; rate 0.0156 kg/ha): 6.0
- Herbicidal rating GLXMAW ([11]; rate 0.0313 kg/ha): 8.0
- Herbicidal rating GLXMAW ([11]; rate 0.0625 kg/ha): 8.0
- herbicidal effect rating, MOOVA (MOOVA (Monochoria); 0.0313 kg/ha): 9.0
- herbicidal effect rating, MOOVA (MOOVA (Monochoria); 0.0625 kg/ha): 9.0
- herbicidal effect rating, MOOVA (MOOVA (Monochoria); 0.1250 kg/ha): 9.0
- herbicidal effect rating, MOOVA (MOOVA (Monochoria); 0.2500 kg/ha): 9.0
- Herbicidal rating TRZAWR ([12]; rate 0.0156 kg/ha): 3.0
- Herbicidal rating TRZAWR ([12]; rate 0.0313 kg/ha): 4.0
- Herbicidal rating TRZAWR ([12]; rate 0.0625 kg/ha): 5.0
- Herbicidal rating ECHCG (ECHCG (Barnyardgrass); rate 0.0156 kg/ha): 0.0
- Herbicidal rating ECHCG (ECHCG (Barnyardgrass); rate 0.0313 kg/ha): 0.0
- Herbicidal rating ECHCG (ECHCG (Barnyardgrass); rate 0.0625 kg/ha): 0.0
